Literature values in patent publication US11346820B2, “HPLC-PDA method and uses thereof in phytoestrogen measurement” (The Board Of Regents, The University of Texas System, priority 2019, dated 2022).
Where two headings read alike, the source gives them in different places.

Conditions: nonrepresentative subset of adults, N=199, Valentin-Blasini, et al.

Structure (SMILES) | means recovered [ng/mL] | means recovered (units converted) [µmol/L]
Oc1ccc([C@H]2COc3cc(O)ccc3C2)cc1 (racemic) [Equol] | 36 | 0.148
O=c1c(-c2ccc(O)cc2)coc2cc(O)cc(O)c12 [Genistein] | 129 | 0.477
